Data as given in publication PMC10094510, “Novel Cannabinoid Receptor 2 (CB2) Low Lipophilicity Agonists Produce Distinct cAMP and Arrestin Signalling Kinetics without Bias” (International Journal of Molecular Sciences, 2023).
pEC50, pKi: −log10 of the molar value. Read-outs that look alike come from different tables or passages of the source.

Key:
[1] = molecular target: T1, human CB2 (Homo sapiens, UniProt P34972, Q63R); assay: Real-time BRET CAMYEL cAMP biosensor, forskolin-stimulated HEK-293S cells transfected with human CB2; type: cell-based; details: for 2.5 min EC75 concentration (log[compound] M): cAMP assay, calculated from mean EC50 at 2.5 min, Figure S1; for time of peak cAMP response (maximal efficacy): during 20 min stimulation; for cAMP ΔEmax (absolute magnitude percentage decrease from 100%): normalised to V 0% and F 100%
T1 construct: HA (N); 3TCS (N); expressed in transfected cells; host or cells: HEK-293S cells, transient transfection (PEI max)
T1 sequence (P34972 whole entry Q63R): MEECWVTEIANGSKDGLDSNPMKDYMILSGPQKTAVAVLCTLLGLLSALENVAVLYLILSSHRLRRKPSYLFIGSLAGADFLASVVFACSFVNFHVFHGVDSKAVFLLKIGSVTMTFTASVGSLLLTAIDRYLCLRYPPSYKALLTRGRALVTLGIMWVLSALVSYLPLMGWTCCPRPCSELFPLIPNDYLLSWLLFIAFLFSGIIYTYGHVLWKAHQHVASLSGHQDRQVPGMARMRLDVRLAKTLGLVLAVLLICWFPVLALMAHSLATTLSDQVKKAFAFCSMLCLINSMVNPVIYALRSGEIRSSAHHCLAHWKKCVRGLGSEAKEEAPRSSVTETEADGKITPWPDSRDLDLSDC
Protocol: (§1) HEK-293S cells (HEK-S; generously provided by Professor David Poyner, Aston Research Centre, RRID:CVCL_A784 [48]) were maintained in T75 flasks (Corning-Costar) with Dulbecco’s Modified Eagle’s Medium high glucose with phenol red, L-glutamine and sodium pyruvate (DMEM; Cytiva SH30243), and 8% foetal bovine serum (FBS; NZ-origin, Moregate Biotech) at 37 °C in a humidified atmosphere containing 5% CO2.
(§2) Poly-D-Lysine (PDL) (Sigma-Aldrich) at 0.05 mg/mL in PBS was incubated in wells of 96-well Solid White Flat Bottom Polystyrene TC-treated Microplate (Corning-Costar) at 37 °C for 1 h, then washed with PBS prior to seeding and transfection. Cells were seeded at 45,000 cells/well in DMEM supplemented with 12% FBS.
(§3) Plasmids encoding human CB2 (HA-3TCS-hCB2 63R pcDNA5/FRT; 28.5 ng per well) or no receptor (pcDNA5/FRT/CAT; 23.5 ng per well; Thermo Fisher Scientific, Waltham, MA, USA), and either His-CAMYEL (in pcDNA3L; 24 ng per well; ATCC MBA-277; previously described in [49]), or a mix of Rluc8-hβ-arrestin2-Sp1 (in pcDNA3; 0.5 ng per well; previously described in [19]) and Mem-linker-Citrine-SH3 (in pcDNA3; 20 ng per well; previously described in [19, 50]) were diluted in DMEM. Diluted DNA was then co-incubated with polyethyleneimine max (PEI max; Polysciences, Warrington, PA, USA) (Total DNA:PEI ratio of 1:7.5 or 1:6.7 for cAMP or β-arrestin-2 experiments, respectively) in DMEM for 1 h at room temperature (~19–21 °C). These transfection mixes were then added to plated cells, resulting in a final concentration of 8% FBS. Plates were incubated for ~48 h before assaying.
(§4) The protocol for measuring levels of cellular cAMP via real-time BRET biosensor (CAMYEL) is adapted from previous publications. In all cAMP experiments, forskolin (Tocris Bioscience, Bristol, UK) was used to stimulate the activation of adenylyl cyclase to raise intracellular cAMP levels. Vehicle (DMSO) was maintained at an equivalent concentration across all conditions. Assays were carried out in technical duplicate. Then, ~48 h post-transfection, plating media was aspirated, and wells were washed with H+B, consisting of HBSS (Life Technologies) and 1 mg/mL BSA (ICPbio). H+B was then added to the wells to initiate a 30 min serum starve at 37 °C. Post-serum starve, coelenterazine h (final concentration 5 μM, NanoLight Technologies, Norman, OK, USA, #301) was added to the wells, and a 5 min pre-reading was conducted using the LUMIstar® Omega luminometer (Rluc and YFP emissions detected at 460 nm and 535 nm, respectively; BMG Labtech, Ortenberg, Germany). Next, forskolin (final concentration 5 μM) was added to all wells (except vehicle-only wells which received DMSO), and plate reading resumed for 5 min. Lastly, CB2 compounds of interest with forskolin, vehicle with forskolin, or vehicle without forskolin, were added to their respective wells, and a final 20 min read was conducted. All compounds and reagents were diluted in H+B prior to addition to the plate. For β-arrestin-2 recruitment assays, an equivalent procedure was followed except no forskolin was included in the assay stimulations.
(§5) BRET ratios were calculated by dividing YFP emissions by Rluc emissions, then for the cAMP assay, normalised to the mean of baseline ratio reads (where only coelenterazine h was present) to eliminate any variability present prior to drug addiction. An increase in BRET ratio indicated a decrease in cAMP levels or increase in β-arrestin-2 recruitment. Lowess smoothing (GraphPad Prism) was applied to individual technical replicates within an assay. Concentration response curves for the mean of technical replicates (CRC; “log(agonist) vs. response (three parameters)” nonlinear regression curve model, Hill slope constrained to 1) were drawn for the mean ratios over 20 min stimulation or individual time-points.

[2] = molecular target: T1, human CB2; assay: Real-time BRET β-arrestin-2 plasma membrane translocation, HEK-293S cells transfected with human CB2; type: cell-based; details: for β-arrestin-2 translocation ΔEmax (% increase above V): normalised to vehicle 100%
Protocol: as §1, §2, §3, §4, §5

[3] = molecular target: T1, human CB2; assay: Competition radioligand binding assay ([3H]-CP55,940), hCB2 membranes; details: for CB2/CB1 Selectivity: CB2 selectivity relative to CB1, from Ki (or Kd); for displacement of [3H]-CP55,940 from CB2: full displacement = ≥ 75% relative to 1 µM CP55,940
Protocol: (§6) The concentration of DMSO was kept equivalent across all test conditions. All dilutions were dispensed into a 96-well, polypropylene V-bottom plate (Gene Era Biotech, Hangzhou, China). […] All conditions were carried out in technical duplicate. The plate was then sealed, tap-mixed, then incubated at 30 °C for 1 h. A total of 50 µL of 0.1% PEI (Sigma-Aldrich, St. Louis, MI, USA) in MQ water was added to each well of a 96-well GF/C harvest plate (Perkin Elmer) 1 h prior to the harvest. When the incubation finished, vacuum (~5 mmHg) was applied to the harvest plate and wells were washed (50 mM HEPES pH 7.4, 500 mM NaCl, 1 mg/mL BSA, MQ water, ice cold). Subsequently, the contents of the V-bottom plate were transferred to corresponding wells in the harvest plate, wash buffer was used to wash the remaining contents of the V-bottom wells before transferring this to the harvest plate, then the harvest plate was washed an additional three times. The plate was dried for ~24 h at 24 °C. To prepare for reading, the bottom of the plate was sealed, each well received 50 µL of Irgasafe Plus scintillation fluid (Perkin Elmer), followed by sealing the top of the plate. Plates were read in a Wallac MicroBeta® TriLux Liquid Scintillation Counter (Perkin Elmer) with a read time of 2 min/well.
(§7) GraphPad Prism (v8.0.2; GraphPad Software, San Diego, CA, USA) was used to fit nonlinear regression curves (One site—Fit Ki) to the corrected counts per minutes (CCPM) of each displacer to determine their pKi (negative log Ki). […] Mean and SEM of pKi values were calculated from independent experiments. […] CB2 selectivity was calculated as […].

[4] = molecular target: T2, human CB1 (Homo sapiens, UniProt P21554); assay: Competition radioligand binding assay ([3H]-CP55,940), hCB1 membranes
T2 construct: pplss (N); 3HA (N); expressed in transfected cells
T2 sequence (P21554 whole entry): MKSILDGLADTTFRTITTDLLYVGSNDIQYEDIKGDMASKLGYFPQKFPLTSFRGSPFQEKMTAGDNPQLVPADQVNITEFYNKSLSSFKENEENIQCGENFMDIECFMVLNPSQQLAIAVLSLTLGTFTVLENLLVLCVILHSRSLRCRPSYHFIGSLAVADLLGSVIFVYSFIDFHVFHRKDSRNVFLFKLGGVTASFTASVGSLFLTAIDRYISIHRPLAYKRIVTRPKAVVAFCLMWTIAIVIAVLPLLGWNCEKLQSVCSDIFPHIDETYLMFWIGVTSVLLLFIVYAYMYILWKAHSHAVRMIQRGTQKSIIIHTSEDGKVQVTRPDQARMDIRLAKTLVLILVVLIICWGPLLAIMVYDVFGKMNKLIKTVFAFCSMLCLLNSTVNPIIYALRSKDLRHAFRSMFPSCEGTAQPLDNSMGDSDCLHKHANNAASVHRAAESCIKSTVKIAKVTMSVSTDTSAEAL
Protocol: as §6, with “Preparation of hCB1- and hCB2-membranes from a HEK pplss-3HA-hCB1 cell line and HEK Flp-in HA-3TCS-hCB2 63R cell line, respectively, followed the protocol described previously. […] The concentration” for “The concentration”
as §7

[5] = tested on: rodents; parameters: method as in PMID 22444677, PMID 25721168; details: cited from earlier work
[6] = parameters: method as in PMID 22444677, PMID 25721168; details: cited from earlier work
[7] = tested on: atopic dermatitis; parameters: method as in PMID 22444677, PMID 25721168; details: informally reported; cited from earlier work
[8] = tested on: CB2; parameters: method as in PMID 22444677; details: error not shown; cited from earlier work
[9] = molecular target: CB2; parameters: method as in PMID 22444677; details: error not shown; cited from earlier work; remark: listed apart in the source
[10] = tested on: CB2; parameters: method as in PMID 31024316; details: cited from earlier work
[11] = mean over 20 min stimulation, 5 μM forskolin

| SMILES | 2.5 min EC75 concentration (log[compound] M) [1] | time of peak cAMP response (maximal efficacy) ([1]; 5 μM forskolin) | cAMP ΔEmax (absolute magnitude percentage decrease from 100%) [1, 11] | β-arrestin-2 translocation ΔEmax (% increase above V) ([2]; mean over 20 min stimulation) | pEC50 [1] | decrease in cAMP pEC50 in comparison with CP55,940 ([1]; mean over 20 min stimulation) | pKi [3] | CB2/CB1 Selectivity [3] | pKi [4] | pEC50 [2] | displacement of [3H]-CP55,940 from CB2 [3] | other results |
| --- | --- | --- | --- | --- | --- | --- | --- | --- | --- | --- | --- | --- |
| CCCCCCC(C)(C)c1ccc([C@@H]2C[C@H](O)CC[C@H]2CCCO)c(O)c1 [CP55,940, reference compound] | -7.3 log M | ≤ 2.5 min | 35.1% ± 3.5% | 17.6% ± 0.8% | – | – | – | – | – | – | – | increase of cAMP response potency during the acute 5 min period ([1]; not significant vs 2.5 min): ~ 0.5 log units; time to plateau of β-arrestin-2 efficacy ([2]; 20 min stimulation): approximately 5 min; overall increase of β-arrestin-2 response potency during the stimulation ([2]; 20 min stimulation, vs 1.5 min): ~ 0.7 log units |
| O=C(N[C@H]1CC[C@@H](O)CC1)c1cc2cccnc2n(CCN2CCOCC2)c1=O [UOMM18] | -7.1 log M | 2.5 min | 28.0 ± 2.4% | 7.3 ± 0.6% | 7.20 | ~ 0.8 log units | 6.14 | >126 | < 4.00 | 6.90 | – | CB2 affinity lower than pKd of CP55,940 ([3]; p < 0.0001): ~ 2.5 log units; displacement of [3H]-CP55,940 at CB1 ([4]; highest applied concentration 31.6 µM): did not detectably displace; agonist type for β-arrestin-2 translocation ([2]; relative to CP55,940): partial agonist |
| CCc1c(C)cc(C(=O)NC2(C(=O)NCCOCCOCCO)CCCCC2)c(=O)n1Cc1ccc(F)cc1 [UOSS75] | -7.6 log M | 2.5 min | 31.4 ± 3.9% | 8.5 ± 0.7% | 8.00 | – | 6.83 | ~100 | ~4.82 | 7.00 | fully displaced | – |
| CCc1c(C)cc(C(=O)NC2(C(=O)NCCOCCOCCOCCO)CCCCC2)c(=O)n1Cc1ccc(F)cc1 [UOSS76] | -6.9 log M | around 4.5 min | 26.1 ± 3.6% | 7.9 ± 1.2% | 7.00 | ~ 1.0 log units | 6.09 | ~40 | ~4.53 | 6.20 | fully displaced | decrease of cAMP response potency during the early phase of stimulation ([1]; not significant vs 4.5 min): ~ 0.7 log units; reduction of CB2 pKi vs. UOSS77 ([3]; p = 0.015): 0.6 log units; smaller β-arrestin-2 pEC50 than CP55,940 ([2]; mean over 20 min stimulation): ~ 1.0 log units; weaker β-arrestin-2 potency than UOSS77 ([2]; mean over 20 min stimulation): ~ 0.7 log units |
| CCc1c(C)cc(C(=O)NC2(C(=O)O)CCCCC2)c(=O)n1Cc1ccc(F)cc1 [UOSS77, reference compound] | -7.6 log M | 2.5 min | 33.8 ± 5.5% | 11.1 ± 0.7% | – | – | – | ~80 | – | – | fully displaced | anti-pruritic activity in rodents [5]: shown promise as an anti-pruritic agent; EC50 ([1]; mean over 20 min stimulation, 5 μM forskolin, mean ± SEM, read-out: cAMP pEC50 (converted)): 0.0126 µM; oral bioavailability [6]: orally bioavailable; Ki ([3]; 0.75 nM [3H]-CP55,940, mean (SEM), read-out: CB2 pKi (±SEM) (converted)): 0.186 µM; Ki ([4]; 0.75 nM [3H]-CP55,940, estimates, incomplete displacement at maximum concentration, read-out: CB1 pKi (±SEM) (converted)): ~15.8 µM; EC50 ([2]; mean over 20 min stimulation, mean ± SEM, read-out: β-arrestin-2 translocation pEC50 (converted)): 0.126 µM; efficacy in Phase 2 clinical trial for atopic dermatitis [7]: ineffective; agonism pEC50 (cAMP) [8]: 7.6; CB2 pKi [9]: 7.4 |
| Cc1c(C(=O)c2cccc3ccccc23)c2cccc3c2n1[C@H](CN1CCOCC1)CO3 [WIN55,212-2] | – | – | – | – | – | – | – | – | – | – | – | agonist type for β-arrestin-2 recruitment to CB2 in comparison with CP55,940 [10]: weak partial agonist |
